For test [1], the target named is T1, Recombinant STAT6 protein (STAT6 (W123-T658)) (Homo sapiens, UniProt P42226).
T1 construct: Recombinant STAT6 protein (STAT6 (W123-T658))
T1 sequence (P42226 123-658): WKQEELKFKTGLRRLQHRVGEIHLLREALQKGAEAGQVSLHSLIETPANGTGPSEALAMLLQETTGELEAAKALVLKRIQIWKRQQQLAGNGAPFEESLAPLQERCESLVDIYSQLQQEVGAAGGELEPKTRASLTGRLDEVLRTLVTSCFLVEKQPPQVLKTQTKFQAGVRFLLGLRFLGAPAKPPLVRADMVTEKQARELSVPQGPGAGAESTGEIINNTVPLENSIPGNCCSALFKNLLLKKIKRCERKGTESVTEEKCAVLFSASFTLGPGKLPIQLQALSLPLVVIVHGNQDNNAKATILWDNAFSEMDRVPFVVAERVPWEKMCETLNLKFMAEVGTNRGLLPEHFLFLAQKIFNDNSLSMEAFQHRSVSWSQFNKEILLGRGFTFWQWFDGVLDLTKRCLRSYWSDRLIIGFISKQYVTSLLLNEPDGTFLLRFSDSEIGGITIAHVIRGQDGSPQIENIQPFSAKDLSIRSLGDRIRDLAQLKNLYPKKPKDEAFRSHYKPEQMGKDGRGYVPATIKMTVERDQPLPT
The experiment in a line: STAT6 Fluorescence Polarization (FP) Assay. It counts as binding. Particulars: 45-minute incubation. The gist of the method: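 Fluorescence polarization (mP) read-out: 250 nM STAT6 (W123-T658) plus 2 nM 5-FAM phosphotyrosine peptide, 45 min, room temperature, 1% DMSO. IC50 by nonlinear fit of mP against log compound concentration.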

In test [2] the target is T2, Recombinant STAT3 protein (STAT3 (G127-I722)) (Homo sapiens, UniProt P40763).
T2 construct: Recombinant STAT3 protein (STAT3 (G127-I722))
T2 sequence (P40763 127-722): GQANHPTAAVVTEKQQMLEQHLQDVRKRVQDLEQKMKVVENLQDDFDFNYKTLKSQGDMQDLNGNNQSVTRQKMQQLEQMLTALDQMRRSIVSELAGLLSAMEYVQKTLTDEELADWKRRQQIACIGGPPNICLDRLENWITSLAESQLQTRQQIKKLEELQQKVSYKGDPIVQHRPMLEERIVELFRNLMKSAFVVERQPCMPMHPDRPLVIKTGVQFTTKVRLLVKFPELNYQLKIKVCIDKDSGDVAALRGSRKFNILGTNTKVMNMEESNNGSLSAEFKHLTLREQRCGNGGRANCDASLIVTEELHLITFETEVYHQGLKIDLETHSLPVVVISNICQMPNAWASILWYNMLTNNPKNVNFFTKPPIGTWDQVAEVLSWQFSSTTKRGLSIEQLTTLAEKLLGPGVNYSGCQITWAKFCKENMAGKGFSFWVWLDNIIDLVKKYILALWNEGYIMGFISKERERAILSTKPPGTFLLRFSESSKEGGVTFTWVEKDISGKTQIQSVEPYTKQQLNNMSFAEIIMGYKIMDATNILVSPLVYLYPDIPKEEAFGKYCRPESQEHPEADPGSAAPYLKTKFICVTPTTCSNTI
Nature of the test: STAT3 Fluorescence Polarization (FP) Assay. Type of test: binding. Particulars: probe 5-FAM-GpYLPQTV-NH2 2 nM, 45-minute incubation. The method in brief: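 Displacement of a 2 nM 5-FAM-labelled pY peptide (GpYLPQTV) from 25 nM recombinant STAT3 (G127-I722) was monitored by fluorescence polarization. Incubation lasted 45 min at room temperature in pH 7.4 HEPES buffer containing 1% DMSO.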

Setting [3] is: STAT6 (W123-T658) 250 nM, probe 5-FAM-Ap[…]-NH2 2 nM, read-out: STAT6 (FP assay IC50 class).
[4] abbreviates: STAT3 (G127-I722) 25 nM, read-out: STAT3 (FP assay IC50 class).
Setting [5] is: STAT6 250 nM, probe 5-FAM-Ap[…]-NH2 2 nM, read-out: STAT6 (FP assay IC50).
[6] abbreviates: STAT3 25 nM, read-out: STAT3 (FP assay IC50).
Setting [7] is: STAT6 (W123-T658) 250 nM, probe 5-FAM-ApYKPFQDLI-NH2 2 nM, read-out: STAT6 (FP assay IC50 class).

Like-named read-outs stand apart in the source and are kept apart here.

As to `N#C[C@H]1[C@H](c2ccccc2)CN(C(=O)[C@@H]2CC[C@@H]3C[C@@H](N4CCC4)CC[C@H](NC(=O)c4cc5cc([C@@H](F)P(=O)(O)O)ccc5s4)C(=O)N32)C12CC2` (single isomer, unassigned) [Compound 937], the IC50 was at most 300 nM in test [1] (setting [3]) and 1000 to 10000 nM in test [2] (setting [4]).

On to `C[C@H]1C[C@H]2CC[C@@H](C(=O)N3CC[C@@H](c4ccccc4)C3)N2C(=O)[C@@H](NC(=O)c2cc3cc(C(F)(F)P(=O)(O)O)ccc3s2)CC1O` (stereo in doubt) [Compound 101, (difluoro(2-(((3S,6S,8S,9S, 10aR)-8-hydroxy-9-methyl-5-oxo-3-((S)-3-phenylpyrrolidine-1-carbonyl)decahydropyrrolo [1,2-a]azocin-6-yl)carbamoyl)benzo[b]thiophen-5-yl)methyl) phosphonic acid], for which the values for the IC50 in test [1] (setting [5]) and in test [2] (setting [6]) were 300 to 3000 nM and 100 to 1000 nM, respectively.

As for `N#CC1C(c2ccccc2)CN(C(=O)[C@@H]2CC[C@@H]3CCC[C@H](NC(=O)c4cc5cc(C(F)(F)P(=O)(O)O)ccc5s4)C(=O)N32)C12CC2` (stereo in doubt) [Compound 865, ((2-(((3S,6S,9aS)-3-((6S,7R)-7-cyano-6-phenyl-4-azaspiro[2.4]heptane-4-carbonyl)-5-oxooctahydro-1H-pyrrolo[1,2-a]azepin-6-yl)carbamoyl)benzo [b]thiophen-5-yl)difluoromethyl) phosphonic acid], the half-inhibitory concentration (IC50) is at most 300 nM in test [1] (setting [3]) and 1000 to 10000 nM in test [2] (setting [4]).

Take `O=C(N[C@H]1CCCC[C@H]2CC[C@@H](C(=O)N3CC(c4cccnc4)CC34CC4)N2C1=O)c1cc2cc([C@@H](F)P(=O)(O)O)ccc2s1` (stereo in doubt) [Compound 910, ((S)-fluoro(2-(((3S,6S,10aS)-5-oxo-3-((R)-6-(pyridin-3-yl)-4-azaspiro[2.4]heptane-4-carbonyl)decahydropyrrolo[1,2-a]azocin-6-yl)carbamoyl)benzo [b]thiophen-5-yl)methyl) phosphonic acid]: the values for the half-maximal inhibitory concentration (IC50) in test [1] (setting [7]) and in test [2] (setting [4]) were at most 300 nM and 1000 to 10000 nM, respectively.

On to `N#CC1C(c2ccccc2)CN(C(=O)[C@@H]2CC[C@@H]3CCC[C@H](NC(=O)c4cc5cc([C@@H](F)P(=O)(O)O)ccc5s4)C(=O)N32)C12CC2` (stereo in doubt) [Compound 921, ((S)-(2-(((3S,6S,9aS)-3-((6R,7S)-7-cyano-6-phenyl-4-azaspiro[2.4]heptane-4-carbonyl)-5-oxooctahydro-1H-pyrrolo[1,2-a]azepin-6-yl)carbamoyl)benzo [b]thiophen-5-yl)fluoromethyl) phosphonic acid], for which the IC50 is at most 300 nM in test [1] (setting [7]) and 1000 to 10000 nM in test [2] (setting [4]).

On to `CN(C(=O)[C@@H]1CC[C@@H]2CCCC[C@H](NC(=O)c3cc4cc(C(F)(F)P(=O)(O)O)ccc4[nH]3)C(=O)N21)c1ccccc1` [Compound 1, (difluoro(2-(((3S,6S,10aS)-3-(methyl(phenyl)carbamoyl)-5-oxodecahydropyrrolo[1,2-a]azocin-6-yl)carbamoyl)-1H-indol-5-yl)methyl)phosphonic acid], for which the IC50 is 300 to 3000 nM in test [1] (setting [5]) and over 10000 nM in test [2] (setting [6]).

On to `O=C(N[C@H]1CC[C@@H](O)C[C@H]2CC[C@@H](C(=O)N3CC(C(=O)N4CCOCC4)C3)N2C1=O)c1cc2cc(C(F)(F)P(=O)(O)O)ccc2s1` [Compound 2, (difluoro(2-(((3S,6S,9R,10aR)-9-hydroxy-3-(3-(morpholine-4-carbonyl)azetidine-1-carbonyl)-5-oxodecahydropyrrolo [1,2-a]azocin-6-yl)carbamoyl)benzo[b]thiophen-5-yl)methyl) phosphonic acid], for which the IC50 in test [1] (setting [5]) was in the range of 3000 to 30000 nM; in test [2] (setting [6]) it was 100 to 1000 nM.

With `O=C(N[C@H]1C[C@H](O)CC[C@H]2CC[C@@H](C(=O)N3CC(C(=O)N4CCOCC4)C3)N2C1=O)c1cc2cc(C(F)(F)P(=O)(O)O)ccc2s1` [Compound 3, (difluoro(2-(((3S,6S,8R, 10aR)-8-hydroxy-3-(3-(morpholine-4-carbonyl)azetidine-1-carbonyl)-5-oxodeca-hydropyrrolo[1,2-a]azocin-6-yl)carbamoyl)benzo[b]thiophen-5-yl)methyl)phosphonic acid], the half-maximal inhibitory concentration (IC50) in test [1] (setting [5]) is 3000 to 30000 nM; in test [2] (setting [6]), 100 to 1000 nM.

For the compound `O=C(N[C@H]1C[C@@H](O)CC[C@H]2CC[C@@H](C(=O)N3CC(C(=O)N4CCOCC4)C3)N2C1=O)c1cc2cc(C(F)(F)P(=O)(O)O)ccc2s1` [Compound 4, (difluoro(2-(((3S,6S,8S,10aR)-8-hydroxy-3-(3-(morpholine-4-carbonyl)azetidine-1-carbonyl)-5-oxodecahydropyrrolo [1,2-a]azocin-6-yl)carbamoyl)benzo[b]thiophen-5-yl)methyl) phosphonic acid], the IC50 lay in the range of 3000 to 30000 nM in test [1] (setting [5]) and 100 to 1000 nM in test [2] (setting [6]).

On to `O=C(N[C@H]1CC[C@H](O)C[C@H]2CC[C@@H](C(=O)N3CC(C(=O)N4CCOCC4)C3)N2C1=O)c1cc2cc(C(F)(F)P(=O)(O)O)ccc2s1` [Compound 5, (difluoro(2-(((3S,6S,9S,10aR)-9-hydroxy-3-(3-(morpholine-4-carbonyl)azetidine-1-carbonyl)-5-oxodecahydropyrrolo [1,2-a]azocin-6-yl)carbamoyl)benzo[b]thiophen-5-yl)methyl)phosphonic acid], for which the IC50 in test [1] (setting [5]) was 3000 to 30000 nM; in test [2] (setting [6]) it was 100 to 1000 nM.

Turning to `O=C(N[C@H]1CC[C@@H](OCc2ccccc2)C[C@H]2CC[C@@H](C(=O)N3CC(C(=O)N4CCOCC4)C3)N2C1=O)c1cc2cc(C(F)(F)P(=O)(O)O)ccc2s1` [Compound 6, ((2-(((3S,6S,9R,10aR)-9-(benzyloxy)-3-(3-(morpholine-4-carbonyl)azetidine-1-carbonyl)-5-oxodecahydropyrrolo [1,2-a]azocin-6-yl)carbamoyl)benzo[b]thiophen-5-yl)difluoromethyl) phosphonic acid], the figures for the IC50 in test [1] (setting [5]) and in test [2] (setting [6]) were 3000 to 30000 nM and 100 to 1000 nM, respectively.

As for `O=C(N[C@H]1C[C@H](OCc2ccccc2)CC[C@H]2CC[C@@H](C(=O)N3CC(C(=O)N4CCOCC4)C3)N2C1=O)c1cc2cc(C(F)(F)P(=O)(O)O)ccc2s1` [Compound 7, ((2-(((3S,6S,8R, 10aR)-8-(benzyloxy)-3-(3-(morpholine-4-carbonyl)azetidine-1-carbonyl)-5-oxodecahydropyrrolo [1,2-a]azocin-6-yl)carbamoyl)benzo[b]thiophen-5-yl)difluoromethyl) phosphonic acid], the IC50 in test [1] (setting [5]) lay in the range of 3000 to 30000 nM; in test [2] (setting [6]), 100 to 1000 nM.

As to `O=C(N[C@H]1C[C@@H](OCc2ccccc2)CC[C@H]2CC[C@@H](C(=O)N3CC(C(=O)N4CCOCC4)C3)N2C1=O)c1cc2cc(C(F)(F)P(=O)(O)O)ccc2s1` [Compound 8, ((2-(((3S,6S,8S,10aR)-8-(benzyloxy)-3-(3-(morpholine-4-carbonyl)azetidine-1-carbonyl)-5-oxodecahydropyrrolo [1,2-a]azocin-6-yl)carbamoyl)benzo [b]thiophen-5-yl)difluoromethyl) phosphonic acid], the IC50 in test [1] (setting [5]) is 3000 to 30000 nM; in test [2] (setting [6]), 100 to 1000 nM.

With `CCO[C@@H]1CC[C@H](NC(=O)c2cc3cc(C(F)(F)P(=O)(O)O)ccc3s2)C(=O)N2[C@H](CC[C@H]2C(=O)N2CC(C(=O)N3CCOCC3)C2)C1` [Compound 9, ((2-(((3S,6S,9R,10aR)-9-ethoxy-3-(3-(morpholine-4-carbonyl)azetidine-1-carbonyl)-5-oxodecahydropyrrolo [1,2-a]azocin-6-yl)carbamoyl)benzo[b]thiophen-5-yl)difluoromethyl) phosphonic acid], the IC50 in test [1] (setting [5]) lay in the range of 3000 to 30000 nM; in test [2] (setting [6]) it was 100 to 1000 nM.

Turning to `CCO[C@H]1CC[C@H]2CC[C@@H](C(=O)N3CC(C(=O)N4CCOCC4)C3)N2C(=O)[C@@H](NC(=O)c2cc3cc(C(F)(F)P(=O)(O)O)ccc3s2)C1` [Compound 10, ((2-(((3S,6S,8S,10aR)-8-ethoxy-3-(3-(morpholine-4-carbonyl)azetidine-1-carbonyl)-5-oxodecahydropyrrolo [1,2-a]azocin-6-yl)carbamoyl)benzo[b]thiophen-5-yl)difluoromethyl) phosphonic acid], the IC50 fell in the range of 3000 to 30000 nM in test [1] (setting [5]) and 100 to 1000 nM in test [2] (setting [6]).

Values taken from patent US20250215029A1 (Recludix Pharma, Inc., priority 2022, published 2025).
